Results taken from ChEMBL document CHEMBL4732026, “Benzimidazole-1,2,3-triazole hybrid molecules: synthesis and study of their interaction with G-quadruplex DNA” (RSC Med Chem, 2021).
Calls of active or inactive are those of the source. No cut-off for these calls is given here.

Key:
[1] = molecular target: Quadruplex DNA; assay: Binding affinity to Tel Q G-quadruplex DNA (unknown origin) assessed as dissociation constant incubated for 5 mins by UV- vis spectrophotometric analysis; assay type: nucleic-acid assay
[2] = test system: PC-3; assay: Induction of apoptosis in human PC-3 cells assessed as early apoptic cells at 55 uM after 48 hrs by Annexin V based flow cytometric analysis (reference value: 0.40%); assay type: functional
[3] = test system: PC-3; assay: Induction of cell cycle arrest in human PC3 cells assessed as accumulation at G2/M phase at 55 uM after 48 hrs by propidium iodide staining based flow cytometry (reference value: 1.4%); assay type: functional
[4] = test system: Quadruplex DNA; assay: Binding affinity to c-Myc G-quadruplex DNA (unknown origin) assessed as increase in viscosity at 15 uM by EtBr/Hoechst 33342 method; assay type: nucleic-acid assay
[5] = test system: Quadruplex DNA; assay: Binding affinity to Tel Q G-quadruplex DNA (unknown origin) assessed as hyperchromicity at 8.5 uM incubated for 5 mins by UV- vis spectrophotometric analysis; assay type: nucleic-acid assay
[6] = test system: CHO-K1; assay: Induction of apoptosis in CHO-K1 cells assessed as early apoptic cells at 60 uM after 48 hrs by Annexin V based flow cytometric analysis (reference value: 4.58%); assay type: cell-based, Cricetulus griseus; settings: chinese hamster, cho-k1, 48 h
[7] = test system: PC-3; assay: Induction of cell cycle arrest in human PC3 cells assessed as accumulation at Sub G1 phase at 50 uM after 48 hrs by propidium iodide staining based flow cytometry (reference value: 0.1%); assay type: functional
[8] = test system: PC-3; assay: Induction of apoptosis in human PC-3 cells assessed as apoptotic cells at 50 uM incubated for 48 hrs by AnnexinV based flow cytometric analysis (reference value: 10.43%); assay type: functional
[9] = test system: PC-3; assay: Induction of apoptosis in human PC-3 cells assessed as necrotic cells at 50 uM after 48 hrs by Annexin V based flow cytometric analysis (reference value: 0.79%); assay type: functional
[10] = test system: PC-3; assay: Induction of apoptosis in human PC-3 cells assessed as apoptotic cells at 55 uM incubated for 48 hrs by AnnexinV based flow cytometric analysis (reference value: 10.43%); assay type: functional
[11] = test system: CHO-K1; assay: Induction of apoptosis in CHO-K1 cells assessed as apoptic cells at 65 uM after 48 hrs by Annexin V based flow cytometric analysis (reference value: 6.29%); assay type: cell-based, Cricetulus griseus; settings: chinese hamster, cho-k1, 48 h
[12] = test system: dsDNA; assay: Stabilization of dsDNA (unknown origin) assessed as change in melting temperature at 8.5 uM incubated for 5 mins by UV-visible thermal denaturation study; assay type: nucleic-acid assay
[13] = test system: dsDNA; assay: Binding affinity to double strand DNA (unknown origin) assessed as increase in viscosity at 15 uM by EtBr/Hoechst 33342 method; assay type: nucleic-acid assay
[14] = test system: CHO-K1; assay: Cytotoxicity against […] cells assessed as reduction in cell viability measured after 72 hrs by MTT assay; assay type: cell-based; settings: Cricetulus griseus, CHO-K1, 72 h

Kd [1]: 72.3 µM
Activity [4]: Active
Activity [5]: 37.1%
ΔTm [12]: 0 °C
Activity [13]: inactive
SMILES: O=C(Cn1cc(CSc2nc3cc(OC(F)F)ccc3[nH]2)nn1)NC1CCCCC1
Activity [2]: 2.2%
Activity [3]: 11.2%
Activity [6]: 10.39%
Activity [7]: 0.1%
Activity [8]: 12.72%
Activity [9]: 2.57%
Activity [10]: 18.62%
Activity [11]: 15.63%
IC50 [14]: 62.9 µM
